In patent US20070042045A1, “Multilayer dosage form comprising a matrix that influences release of a modulatory substance” (ROEHM GBMH & CO. KG, priority 2003, published 2007):

assay: active ingredient delivery in PhEur phosphate buffer of pH 6.8 in a USP dissolution tester; assay type: physicochemical; settings: versus pellets with microcrystalline cellulose (Example 5), EUDRAGIT RS coating, no matrix

Structure (SMILES)	effect of the modulating substance in the core on active ingredient delivery
O=C(O)CC(O)(CC(=O)O)C(=O)O [citric acid]	accelerating effect
CC(=O)[O-].[Na+] [sodium acetate]	accelerating effect
[Cl-].[Na+] [sodium chloride]	reducing effect
O=C([O-])CCC(=O)[O-].[Na+].[Na+] [sodium succinate]	accelerating effect
